Laboratory results from US5348946A, “Heteroanthracycline antitumor analogs” (Biochem Immunosystems, Inc., priority 1991, dated 1994).

Experiments:
Type in all cases: cell-based
F498 = test: in vitro cytotoxicity evaluation, CNS Cancer; conditions: Homo sapiens, 48 h, F498, two days, sulforhodamine B
Method: (§1) These assays were carried out at the Developmental Therapeutics Program, Division of Cancer Treatment, National Cancer Institute (Bethesda, Md., USA). The method consists of incubating varying concentrations of the drug with an inoculum of cells for two days.
(§2) It should be noted that the first two parameters (GI50 and TGI) relate to antiproliferation effects while the third one (LC50) indicates true cytotoxicity.

SF-268 = test: in vitro cytotoxicity evaluation, CNS Cancer; conditions: Homo sapiens, 48 h, SF-268, two days, sulforhodamine B
Method: as §1, §2

SF-295 = test: in vitro cytotoxicity evaluation, CNS Cancer; conditions: Homo sapiens, 48 h, SF-295, two days, sulforhodamine B
Method: as §1, §2

SF-539 = test: in vitro cytotoxicity evaluation, CNS Cancer; conditions: Homo sapiens, 48 h, SF-539, two days, sulforhodamine B
Method: as §1, §2

SNB-19 = test: in vitro cytotoxicity evaluation, CNS Cancer; conditions: Homo sapiens, 48 h, SNB-19, two days, sulforhodamine B
Method: as §1, §2

SNB-75 = test: in vitro cytotoxicity evaluation, CNS Cancer; conditions: Homo sapiens, 48 h, SNB-75, two days, sulforhodamine B
Method: as §1, §2

SNB-78 = test: in vitro cytotoxicity evaluation, CNS Cancer; conditions: Homo sapiens, 48 h, SNB-78, two days, sulforhodamine B
Method: as §1, §2

U251 = test: in vitro cytotoxicity evaluation, CNS Cancer; conditions: Homo sapiens, U-251, 48 h, U251, two days, sulforhodamine B
Method: as §1, §2

LOX IMVI = test: in vitro cytotoxicity evaluation, Melanoma; conditions: Homo sapiens, 48 h, two days, sulforhodamine B
Method: as §1, §2

M14 = test: in vitro cytotoxicity evaluation, Melanoma; conditions: Homo sapiens, 48 h, M14, two days, sulforhodamine B
Method: as §1, §2

M19-MEL = test: in vitro cytotoxicity evaluation, Melanoma; conditions: Homo sapiens, 48 h, two days, sulforhodamine B
Method: as §1, §2

SK-MEL-2 = test: in vitro cytotoxicity evaluation, Melanoma; conditions: Homo sapiens, 48 h, SK-MEL-2, two days, sulforhodamine B
Method: as §1, §2

SK-MEL-5 = test: in vitro cytotoxicity evaluation, Melanoma; conditions: Homo sapiens, 48 h, SK-MEL-5, two days, sulforhodamine B
Method: as §1, §2

UACC-257 = test: in vitro cytotoxicity evaluation, Melanoma; conditions: Homo sapiens, 48 h, UACC-257, two days, sulforhodamine B
Method: as §1, §2

UACC-62 = test: in vitro cytotoxicity evaluation, Melanoma; conditions: Homo sapiens, 48 h, UACC-62, two days, sulforhodamine B
Method: as §1, §2

786-O = test: in vitro cytotoxicity evaluation, Renal Cancer; conditions: Homo sapiens, 786-0, 48 h, two days, sulforhodamine B
Method: as §1, §2

ACHN = test: in vitro cytotoxicity evaluation, Renal Cancer; conditions: Homo sapiens, 48 h, two days, sulforhodamine B
Method: as §1, §2

CAKI-1 = test: in vitro cytotoxicity evaluation, Renal Cancer; conditions: Homo sapiens, 48 h, CAKI-1, two days, sulforhodamine B
Method: as §1, §2

RXF-393 = test: in vitro cytotoxicity evaluation, Renal Cancer; conditions: Homo sapiens, 48 h, RXF-393, two days, sulforhodamine B
Method: as §1, §2

RXF-631 = test: in vitro cytotoxicity evaluation, Renal Cancer; conditions: Homo sapiens, 48 h, RXF-631, two days, sulforhodamine B
Method: as §1, §2

SN12C = test: in vitro cytotoxicity evaluation, Renal Cancer; conditions: Homo sapiens, 48 h, two days, sulforhodamine B
Method: as §1, §2

TK-10 = test: in vitro cytotoxicity evaluation, Renal Cancer; conditions: Homo sapiens, 48 h, TK-10, two days, sulforhodamine B
Method: as §1, §2

[1] = read-out: LOG10 G150 (GI50) (converted)
[2] = read-out: Log10 LC50 (converted)
[3] = read-out: Log10 TGI (converted)

COc1c2c(c(OC)c3c(=O)c4ccccc4sc13)CS(=O)(=O)[C@@H]2O[C@H]1C[C@H](N)[C@H](O)[C@H](C)O1 [BCH-255, (1S ) 1-daunosamine-4-11-dimethoxy-5-oxo-5-H-1,3-dihydrothioxantheno [2,3-c] thiophene-2,2-dioxide] was tested, and the GI50 (F498; [1]) was 16.6 µM, the CC50 (F498; [2]) was 58.9 µM and the IC (total growth inhibition (TGI)) (F498; [3]) was 31.6 µM. The GI50 (SF-268; [1]) was 20.9 µM, the CC50 (SF-268; [2]) was greater than 100 µM and the IC (total growth inhibition (TGI)) (SF-268; [3]) was 52.5 µM. It also gave a GI50 (SF-295; [1]) of 16.2 µM, a CC50 (SF-295; [2]) of 63.1 µM and an IC (total growth inhibition (TGI)) (SF-295; [3]) of 32.4 µM. For the same compound, the GI50 (SF-539; [1]) was 17.4 µM, the CC50 (SF-539; [2]) was 57.5 µM and the IC (total growth inhibition (TGI)) (SF-539; [3]) was 31.6 µM. The GI50 (SNB-19; [1]) was 30.9 µM, the CC50 (SNB-19; [2]) was greater than 100 µM and the IC (total growth inhibition (TGI)) (SNB-19; read-out: Log10 TGI) was greater than 100 µM. The GI50 (SNB-75; [1]) was 15.8 µM, the CC50 (SNB-75; [2]) was 57.5 µM and the IC (total growth inhibition (TGI)) (SNB-75; [3]) was 30.2 µM. The GI50 (SNB-78; [1]) was 20.4 µM, the CC50 (SNB-78; [2]) was 91.2 µM and the IC (total growth inhibition (TGI)) (SNB-78; [3]) was 42.7 µM. For the same compound, the GI50 (U251; [1]) was 17.4 µM, the CC50 (U251; [2]) was 56.2 µM and the IC (total growth inhibition (TGI)) (U251; [3]) was 31.6 µM. The GI50 (LOX IMVI; [1]) was 17.8 µM, the CC50 (LOX IMVI; [2]) was 81.3 µM and the IC (total growth inhibition (TGI)) (LOX IMVI; [3]) was 38 µM. For the same compound, the GI50 (M14; [1]) was 18.2 µM, the CC50 (M14; [2]) was 60.3 µM and the IC (total growth inhibition (TGI)) (M14; [3]) was 33.1 µM. The GI50 (M19-MEL; [1]) was 18.2 µM, the CC50 (M19-MEL; [2]) was 67.6 µM and the IC (total growth inhibition (TGI)) (M19-MEL; [3]) was 34.7 µM. It also gave a GI50 (SK-MEL-2; [1]) of 19.1 µM, a CC50 (SK-MEL-2; [2]) of 70.8 µM and an IC (total growth inhibition (TGI)) (SK-MEL-2; [3]) of 36.3 µM. It also gave a GI50 (SK-MEL-5; [1]) of 18.2 µM, a CC50 (SK-MEL-5; [2]) of 57.5 µM and an IC (total growth inhibition (TGI)) (SK-MEL-5; [3]) of 32.4 µM. It also gave a GI50 (UACC-257; [1]) of 22.4 µM, a CC50 (UACC-257; [2]) of 85.1 µM and an IC (total growth inhibition (TGI)) (UACC-257; read-out: Log10 TGI) of 43.7 µM. For the same compound, the GI50 (UACC-62; [1]) was 19.1 µM, the CC50 (UACC-62; [2]) was 74.1 µM and the IC (total growth inhibition (TGI)) (UACC-62; [3]) was 37.2 µM. It also gave a GI50 (786-O; [1]) of 16.2 µM, a CC50 (786-O; [2]) of 58.9 µM and an IC (total growth inhibition (TGI)) (786-O; [3]) of 30.9 µM. The GI50 (ACHN; [1]) was 17.4 µM, the CC50 (ACHN; [2]) was 61.7 µM and the IC (total growth inhibition (TGI)) (ACHN; [3]) was 32.4 µM. It also gave a GI50 (CAKI-1; [1]) of 19.5 µM, a CC50 (CAKI-1; [2]) of 74.1 µM and an IC (total growth inhibition (TGI)) (CAKI-1; [3]) of 38 µM. The GI50 (RXF-393; [1]) was 17 µM, the CC50 (RXF-393; [2]) was 72.4 µM and the IC (total growth inhibition (TGI)) (RXF-393; [3]) was 35.5 µM. The GI50 (RXF-631; [1]) was 20 µM, the CC50 (RXF-631; [2]) was greater than 100 µM and the IC (total growth inhibition (TGI)) (RXF-631; [3]) was 46.8 µM. For the same compound, the GI50 (SN12C; [1]) was 18.2 µM, the CC50 (SN12C; [2]) was 72.4 µM and the IC (total growth inhibition (TGI)) (SN12C; [3]) was 36.3 µM. The GI50 (TK-10; [1]) was 25.7 µM, the CC50 (TK-10; [2]) was 77.6 µM and the IC (total growth inhibition (TGI)) (TK-10; [3]) was 44.7 µM.
